Data set [1] in a line: Lipophilicity, logP of the compound. In kind it is physicochemical. The note with it: octanol/water.
Data set [2] has as its target T1, Protein Mdm4 (Homo sapiens, UniProt O15151).
T1 sequence (O15151 whole entry): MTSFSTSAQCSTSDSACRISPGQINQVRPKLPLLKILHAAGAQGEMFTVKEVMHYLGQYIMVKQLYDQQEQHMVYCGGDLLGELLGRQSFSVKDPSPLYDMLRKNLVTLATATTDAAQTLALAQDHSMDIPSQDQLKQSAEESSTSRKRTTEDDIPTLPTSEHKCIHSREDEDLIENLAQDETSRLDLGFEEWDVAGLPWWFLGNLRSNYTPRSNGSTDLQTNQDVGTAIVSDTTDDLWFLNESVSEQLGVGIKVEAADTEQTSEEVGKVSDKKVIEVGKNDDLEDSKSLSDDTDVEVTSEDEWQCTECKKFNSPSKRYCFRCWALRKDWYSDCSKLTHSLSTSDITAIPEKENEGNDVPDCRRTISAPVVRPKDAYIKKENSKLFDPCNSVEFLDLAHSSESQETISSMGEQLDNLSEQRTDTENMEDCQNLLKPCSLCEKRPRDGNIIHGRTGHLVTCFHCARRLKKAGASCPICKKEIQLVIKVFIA

Data set [3] deals with E3 ubiquitin-protein ligase Mdm2 (Homo sapiens, UniProt Q00987).
Sequence of E3 ubiquitin-protein ligase Mdm2 (Q00987 whole entry): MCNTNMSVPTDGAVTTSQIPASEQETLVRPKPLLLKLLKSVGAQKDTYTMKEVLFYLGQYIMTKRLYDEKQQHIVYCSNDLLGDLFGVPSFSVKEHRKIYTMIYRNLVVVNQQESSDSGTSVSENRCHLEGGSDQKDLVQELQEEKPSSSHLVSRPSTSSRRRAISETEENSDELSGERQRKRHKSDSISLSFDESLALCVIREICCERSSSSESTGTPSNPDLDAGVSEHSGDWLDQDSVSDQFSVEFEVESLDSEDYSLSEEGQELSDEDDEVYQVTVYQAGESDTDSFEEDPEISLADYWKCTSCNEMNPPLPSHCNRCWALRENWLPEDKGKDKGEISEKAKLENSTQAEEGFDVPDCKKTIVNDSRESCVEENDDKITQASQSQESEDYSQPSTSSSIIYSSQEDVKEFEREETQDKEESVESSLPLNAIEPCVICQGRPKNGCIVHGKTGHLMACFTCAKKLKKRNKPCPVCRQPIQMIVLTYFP

In general, logP refers to a log measure of how a compound divides between an organic and an aqueous phase. By Ki is commonly meant the equilibrium dissociation constant of an inhibitor or competing ligand from its target. In turn, `CCOC(=O)c1[nH]c2cc(Cl)ccc2c1-c1c(-c2ccc(Cl)cc2)c2ccccc2n1Cc1ccc(Cl)cc1` gave a logP in data set [1] of 8.38. Further, the inhibition constant Ki in data set [2] is above 60 µM; in data set [3] it was above 22 µM.

The molecule `O=C(O)c1[nH]c2cc(Cl)ccc2c1-c1c(-c2ccc(F)cc2)c2ccccc2n1Cc1ccc(Cl)cc1` came in with a logP in data set [1] of 7.38.

Consider `O=C(NCCN1CCOCC1)c1[nH]c2cc(Cl)ccc2c1-c1c(-c2ccccc2)c2ccccc2n1Cc1ccc(Cl)cc1`, for which the logP in data set [1] is 6.4.

Regarding `CCOC(=O)c1[nH]c2cc(Cl)ccc2c1-c1c(-c2ccccc2)c2ccccc2n1Cc1ccc(Cl)cc1`, in data set [1], the logP worked out at 7.82.

In turn, `Clc1ccc(Cn2c(-c3c[nH]c4cc(Cl)ccc34)c(-c3ccccc3)c3ccccc32)cc1` registered a logP in data set [1] of 7.61.

`CCOC(=O)c1[nH]c2cc(Cl)ccc2c1-c1c(-c2ccc(F)cc2)c2ccccc2n1Cc1ccc(Cl)cc1` returned a logP in data set [1] of 7.98.

In data set [1], `O=C(O)c1[nH]c2cc(Cl)ccc2c1-c1c(-c2ccccc2)c2ccccc2n1Cc1ccc(Cl)cc1` showed a logP of 7.22.
